In brackets after ≈: the same amount, converted by molar mass.
Assays:
[1] = tested on: B. fragilis MZ-R ATCC 11295; test: MIC/MBC against Bacteroides fragilis strain D; type: cell-based; details: for MBC: ATCC11295, 99.9% reduction in viable count; for MIC: ATCC11295, 48 h, 48 hours, 37° C., anaerobic
Experimental: (§1) The screening panel utilized in this Example consisted of 5 strains of Bacteroides fragilis. All assays were carried out in 96-well microtitre plates. If an isolate was obtained from either a culture collection or clinical source, the isolate was immediately inoculated into Wilkens-Chalgren broth (Oxoid) and incubated at 37° C. in an anaerobic chamber in an atmosphere of 85% nitrogen, 10% carbon dioxide, and 5% hydrogen for 48 hours. At the end of this time, the viable count was about 10^12 organisms/ml broth. A 1 ml aliquot of each culture was placed in an ampoule and quick frozen in acetone-dry ice mixture and stored in liquid nitrogen. When an inoculum was utilized in an assay, one of the ampoules was thawed and diluted with fresh broth to yield a suspension having a count of 5×10^5 organisms/ml. A 100 μl aliquot of this suspension was inoculated into each well of the microtitre plate. A 2 mg sample of the test compound was dissolved in 0.2 ml of a suitable solvent such as dimethylsulfoxide, polyethylene glycol 200 or methanol. […] After addition of the test solution the final inoculum level was 10^5 cells/ml. The plates were incubated for 48 hours at 37° C. in the anaerobic chamber. The Minimum Inhibitory Concentration (MIC) was read visually. The MIC is defined as the lowest concentration at which there is no detectable growth. The Minimum Bactericidal Concentration (MBC) was determined by taking 50 μl aliquot from each well and placing it in fresh medium.

B. fragilis NCTC 9344 = test: MIC/MBC against Bacteroides fragilis strain C; type: cell-based; details: for MBC: NCTC9344, 99.9% reduction in viable count; for MIC: NCTC9344, 48 h, 48 hours, 37° C., anaerobic
Experimental: as §1, with “medium. […] The strains of Bacteroides fragilis utilized in the above procedure are identified by letter in accordance with the following legend: |C B. fragilis NCTC 9344” for “medium.”

B. fragilis WS-1 = test: MIC/MBC against Bacteroides fragilis strain E; type: cell-based; details: for MBC: WS1, 99.9% reduction in viable count; for MIC: WS1, 48 h, 48 hours, 37° C., anaerobic
Experimental: as §1, with “medium. […] The strains of Bacteroides fragilis utilized in the above procedure are identified by letter in accordance with the following legend: |E B. fragilis WS-1*” for “medium.”

[2] = tested on: Costridium difficile NCIB 10666; test: MIC vs panel of anaerobes; type: cell-based, C. difficile; details: Clostridioides difficile, NCIB10666, C. difficile NCIB 10666; procedures of Example 40; read-out: MIC
[3] = tested on: Fusobacterium necrophorum ATCC 11295; test: MIC vs panel of anaerobes; type: cell-based; details: Fusobacterium necrophorum, ATCC11295, Fusobacterium necrophorum ATCC 11295; procedures of Example 40; read-out: MIC
[4] = tested on: Clostridium perfringens NCTC 8237; test: microbe, parasite or virus in culture; type: cell-based; details: procedures of Example 40
[5] = tested on: Campylobacter fetus ss. jejuni NCTC 10842; test: MIC vs panel of anaerobes; type: cell-based; details: NCTC10842, procedures of Example 40
[6] = tested on: Clostridium perfringens NCTC 523; test: microbe, parasite or virus in culture; type: cell-based; details: Clostridium perfringens, NCTC523, Clostridium perfringens NCTC 523; procedures of Example 40
[7] = Clostridium perfringens, NCTC8237, Clostridium perfringens NCTC 8237

SMILES: CC1(C)CN=C2C(c3ccc(F)cc3)=[N+]([O-])c3cnccc3N2C1 [Example 33, 2,3-Dihydro-2,2-dimethyl-5-(4-fluorophenyl)-1H-pyrimido[1,2-a]pyrido[3,4-e]pyrazine 6-oxide]
- MBC [1]: < 0.8 µg/mL
- MIC [1]: < 0.8 µg/mL
- MBC (B. fragilis NCTC 9344): < 0.8 µg/mL
- MIC (B. fragilis NCTC 9344): < 0.8 µg/mL
- MBC (B. fragilis WS-1): < 0.8 µg/mL
- MIC (B. fragilis WS-1): < 0.8 µg/mL

SMILES: CC1(C)CN=C2C(c3ccc(F)cc3)=[N+]([O-])c3cccnc3N2C1 [Example 31, 2,3-Dihydro-2,2-dimethyl-5-(4-fluorophenyl)-1H-pyrimido[1,2-a]pyrido[3,2-e]pyrazine 6-oxide]
- MIC [2]: < 0.8 µg/mL
- MIC [3]: 3.1 µg/mL (≈ 9.56 µM)
- MIC [4, 7]: 12.5 µg/mL (≈ 38.5 µM)
- MBC [1]: < 0.8 µg/mL
- MIC [1]: < 0.8 µg/mL
- MBC (B. fragilis NCTC 9344): < 0.8 µg/mL
- MIC (B. fragilis NCTC 9344): < 0.8 µg/mL
- MBC (B. fragilis WS-1): < 0.8 µg/mL
- MIC (B. fragilis WS-1): < 0.8 µg/mL
- MIC [5]: 50 µg/mL (≈ 154 µM)
- MIC [6]: 3.1 µg/mL (≈ 9.56 µM)

SMILES: COc1ccc(C2=[N+]([O-])c3cccnc3N3CC(C)(C)CN=C23)cc1OC [Example 22, 2,3-Dihydro-5-(3,4-dimethoxyphenyl)-2,2-dimethyl-1H-pyrimido[1,2-a]pyrido[3,2-e]pyrazine 6-oxide]
- MIC [2]: < 0.8 µg/mL
- MIC [3]: < 0.8 µg/mL
- MIC [4, 7]: 6.2 µg/mL (≈ 16.9 µM)
- MBC [1]: < 0.8 µg/mL
- MIC [1]: < 0.8 µg/mL
- MBC (B. fragilis NCTC 9344): < 0.8 µg/mL
- MIC (B. fragilis NCTC 9344): < 0.8 µg/mL
- MBC (B. fragilis WS-1): < 0.8 µg/mL
- MIC (B. fragilis WS-1): < 0.8 µg/mL
- MIC [5]: 50 µg/mL (≈ 136 µM)
- MIC [6]: < 0.8 µg/mL

SMILES: CC1(C)CN=C2C(c3ccccc3)=[N+]([O-])c3cnccc3N2C1 [Example 15, 2,3-Dihydro-2,2-dimethyl-5-phenyl-1H-pyrimido[1,2-a]pyrido[3,4-e]pyrazine 6-oxide]
- MIC [2]: 1.5 µg/mL (≈ 4.9 µM)
- MIC [3]: < 0.8 µg/mL
- MIC [4, 7]: 12.5 µg/mL (≈ 40.8 µM)
- MBC [1]: 1.5 µg/mL (≈ 4.9 µM)
- MIC [1]: < 0.8 µg/mL
- MBC (B. fragilis NCTC 9344): < 0.8 µg/mL
- MIC (B. fragilis NCTC 9344): < 0.8 µg/mL
- MBC (B. fragilis WS-1): 1.5 µg/mL (≈ 4.9 µM)
- MIC (B. fragilis WS-1): < 0.8 µg/mL
- MIC [6]: 1.5 µg/mL (≈ 4.9 µM)

SMILES: CC1(C)CN=C2C(c3ccccc3)=[N+]([O-])c3ccncc3N2C1 [Example 14, 2,3-Dihydro-2,2-dimethyl-5-phenyl-1H-pyrimido[1,2-a]pyrido[4,3-e]pyrazine 6-oxide]
- MIC [2]: 1.5 µg/mL (≈ 4.9 µM)
- MIC [3]: 25 µg/mL (≈ 81.6 µM)
- MIC [4, 7]: 25 µg/mL (≈ 81.6 µM)
- MBC [1]: 3.1 µg/mL (≈ 10.1 µM)
- MIC [1]: 3.1 µg/mL (≈ 10.1 µM)
- MBC (B. fragilis NCTC 9344): 6.2 µg/mL (≈ 20.2 µM)
- MIC (B. fragilis NCTC 9344): 6.2 µg/mL (≈ 20.2 µM)
- MBC (B. fragilis WS-1): 3.1 µg/mL (≈ 10.1 µM)
- MIC (B. fragilis WS-1): 3.1 µg/mL (≈ 10.1 µM)
- MIC [5]: 50 µg/mL (≈ 163 µM)
- MIC [6]: 25 µg/mL (≈ 81.6 µM)

SMILES: CC1CN=C2C(c3ccccc3)=[N+]([O-])c3cccnc3N2C1 (stereo not drawn) [Example 32, 2,3-Dihydro-2-methyl-5-phenyl-1H-pyrimido[1,2-a]pyrido[3,2-e]pyrazine 6-oxide]
- MIC [3]: < 0.8 µg/mL
- MIC [4, 7]: 6.2 µg/mL (≈ 21.2 µM)
- MBC [1]: < 0.8 µg/mL
- MIC [1]: < 0.8 µg/mL
- MBC (B. fragilis NCTC 9344): < 0.8 µg/mL
- MIC (B. fragilis NCTC 9344): < 0.8 µg/mL
- MBC (B. fragilis WS-1): < 0.8 µg/mL
- MIC (B. fragilis WS-1): < 0.8 µg/mL
- MIC [5]: < 0.8 µg/mL
- MIC [6]: < 0.8 µg/mL

SMILES: [O-][N+]1=C(c2ccccc2)C2=NCC3(CCCCC3)CN2c2ncccc21 [Example 29, Spiro[cyclohexane-1,2'-[2,3]-dihydro-[5]-phenyl-[1H]pyrimido[1,2-a]pyrido[3,2-e]pyrazine [6]-oxide]]
- MIC [2]: < 0.8 µg/mL
- MIC [3]: 6.2 µg/mL (≈ 17.9 µM)
- MBC [1]: < 0.8 µg/mL
- MIC [1]: < 0.8 µg/mL
- MBC (B. fragilis NCTC 9344): < 0.8 µg/mL
- MIC (B. fragilis NCTC 9344): < 0.8 µg/mL
- MBC (B. fragilis WS-1): < 0.8 µg/mL
- MIC (B. fragilis WS-1): < 0.8 µg/mL
- MIC [5]: 100 µg/mL (≈ 289 µM)
- MIC [6]: 1.5 µg/mL (≈ 4.33 µM)

SMILES: CC1(C)CN=C2C(c3ccc(Cl)cc3)=[N+]([O-])c3cccnc3N2C1 [Example 18, 2,3-Dihydro-5-(4-chlorophenyl)-2,2-dimethyl-1H-pyrimido[1,2-a]pyrido[3,2-e]pyrazine 6-oxide]
- MIC [2]: < 0.8 µg/mL
- MIC [3]: < 0.8 µg/mL
- MIC [4, 7]: 6.2 µg/mL (≈ 18.2 µM)
- MBC [1]: < 0.8 µg/mL
- MIC [1]: < 0.8 µg/mL
- MBC (B. fragilis NCTC 9344): 1.5 µg/mL (≈ 4.4 µM)
- MIC (B. fragilis NCTC 9344): 1.5 µg/mL (≈ 4.4 µM)
- MBC (B. fragilis WS-1): < 0.8 µg/mL
- MIC (B. fragilis WS-1): < 0.8 µg/mL
- MIC [6]: < 0.8 µg/mL

SMILES: Cc1ccc(C2=[N+]([O-])c3cnccc3N3CC(C)(C)CN=C23)cc1 [Example 19, 2,3-Dihydro-2,2-dimethyl-5-(4-methylphenyl)-1H-pyrimido[1,2-a]pyrido[3,4-e]pyrazine 6-oxide]
- MIC [3]: < 0.8 µg/mL
- MIC [4, 7]: 1.5 µg/mL (≈ 4.68 µM)
- MBC [1]: 1.5 µg/mL (≈ 4.68 µM)
- MIC [1]: 1.5 µg/mL (≈ 4.68 µM)
- MBC (B. fragilis NCTC 9344): < 0.8 µg/mL
- MIC (B. fragilis NCTC 9344): < 0.8 µg/mL
- MBC (B. fragilis WS-1): 1.5 µg/mL (≈ 4.68 µM)
- MIC (B. fragilis WS-1): 1.5 µg/mL (≈ 4.68 µM)
- MIC [5]: 6.2 µg/mL (≈ 19.4 µM)
- MIC [6]: 1.5 µg/mL (≈ 4.68 µM)

SMILES: CCCC1(C)CN=C2C(c3ccccc3)=[N+]([O-])c3cnccc3N2C1 (stereo not drawn) [Example 27, 2,3-Dihydro-2-methyl-5-phenyl-2-propyl-1H-pyrimido[1,2-a]pyrido[3,4-e]pyrazine 6-oxide]
- MBC [1]: 1.5 µg/mL (≈ 4.49 µM)
- MIC [1]: 1.5 µg/mL (≈ 4.49 µM)
- MBC (B. fragilis NCTC 9344): < 0.8 µg/mL
- MIC (B. fragilis NCTC 9344): < 0.8 µg/mL
- MBC (B. fragilis WS-1): 3.1 µg/mL (≈ 9.27 µM)
- MIC (B. fragilis WS-1): 1.5 µg/mL (≈ 4.49 µM)

SMILES: CC1(C)CN=C2C(c3ccccc3)=[N+]([O-])c3cccnc3N2C1 [Example 16, 2,3-Dihydro-2,2-dimethyl-5-phenyl-1H-pyrimido[1,2-a]pyrido[3,2-e]pyrazine 6-oxide]
- MIC [2]: < 0.8 µg/mL
- MIC [3]: < 0.8 µg/mL
- MIC ([4]; Clostridium perfringens NCTC 8237): 12.5 µg/mL (≈ 40.8 µM)
- MBC [1]: 1.5 µg/mL (≈ 4.9 µM)
- MIC [1]: < 0.8 µg/mL
- MBC (B. fragilis NCTC 9344): 1.5 µg/mL (≈ 4.9 µM)
- MIC (B. fragilis NCTC 9344): 1.5 µg/mL (≈ 4.9 µM)
- MBC (B. fragilis WS-1): 1.5 µg/mL (≈ 4.9 µM)
- MIC (B. fragilis WS-1): < 0.8 µg/mL
- MIC [6]: < 0.8 µg/mL

SMILES: CC1CN=C2C(c3ccccc3)=[N+]([O-])c3cnccc3N2C1 (stereo not drawn) [Example 34, 2,3-Dihydro-2-methyl-5-phenyl-1H-pyrimido[1,2-a]pyrido[3,4-e]pyrazine 6-oxide]
- MBC [1]: < 0.8 µg/mL
- MIC [1]: < 0.8 µg/mL
- MBC (B. fragilis NCTC 9344): < 0.8 µg/mL
- MIC (B. fragilis NCTC 9344): < 0.8 µg/mL
- MBC (B. fragilis WS-1): < 0.8 µg/mL
- MIC (B. fragilis WS-1): < 0.8 µg/mL

SMILES: COc1ccc(C2=[N+]([O-])c3cnccc3N3CC(C)(C)CN=C23)cc1OC [Example 21]
- MBC [1]: < 0.8 µg/mL
- MIC [1]: < 0.8 µg/mL
- MBC (B. fragilis NCTC 9344): 1.5 µg/mL (≈ 4.09 µM)
- MIC (B. fragilis NCTC 9344): < 0.8 µg/mL
- MBC (B. fragilis WS-1): < 0.8 µg/mL
- MIC (B. fragilis WS-1): < 0.8 µg/mL

SMILES: CCCC1(C)CN=C2C(c3ccccc3)=[N+]([O-])c3cccnc3N2C1 (stereo not drawn) [Example 28, 2,3-Dihydro-2-methyl-5-phenyl-2-propyl-1H-pyrimido[1,2-a]pyrido[3,2-e]pyrazine 6-oxide]
- MBC [1]: < 0.8 µg/mL
- MIC [1]: < 0.8 µg/mL
- MBC (B. fragilis NCTC 9344): < 0.8 µg/mL
- MIC (B. fragilis NCTC 9344): < 0.8 µg/mL
- MBC (B. fragilis WS-1): 1.5 µg/mL (≈ 4.49 µM)
- MIC (B. fragilis WS-1): < 0.8 µg/mL
